The text below walks through data of patent US20240124427A1, “HYDROXYHETEROCYCLOALKANE-CARBAMOYL DERIVATIVES” (Idorsia Pharmaceuticals Ltd, priority 2021, published 2024).

For the test, the target named is human Gal-3 (hGal-3) (Homo sapiens (Human), UniProt P17931). Put plainly: Competitive binding assay: biotinylated hGal-3 binding to microplate-adsorbed asialofetuin (ASF). Conditions: Activity on hGal-3; mean values of several measurements; mixture of diastereomers measured where not separated. As to the method:
The inhibitory activity of compounds is determined in competitive binding assays. This spectrophotometric assay measures the binding of biotinylated human Gal-3 (hGal-3) or human Gal-1 (hGal-1), respectively, to a microplate-adsorbed glycoprotein, asialofetuin (ASF) (Proc Natl Acad Sci USA. 2013 Mar 26;110(13):5052-7.). Alternatively, and preferably, a human Gal-1 version in which all six cysteines are substituted by serines may be used.
Briefly, compounds are serially diluted in DMSO (working dilutions).
Plates are incubated for 3 hours at 4° C., then washed with cold assay buffer (3×50 uL), incubated for 1 hour with 25 μL/well of a streptavidin-peroxidase solution (diluted in assay buffer to 80 ng/mL) at 4° C., followed by further washing steps with assay buffer (3×50 uL). Finally, 25 μL/well of ABTS substrate is added.
The calculated IC50 values may fluctuate depending on the daily assay performance. Fluctuations of this kind are known to those skilled in the art. IC50 values from several measurements are given as mean values.

human Gal-3 (hGal-3), sequence (P17931 whole entry): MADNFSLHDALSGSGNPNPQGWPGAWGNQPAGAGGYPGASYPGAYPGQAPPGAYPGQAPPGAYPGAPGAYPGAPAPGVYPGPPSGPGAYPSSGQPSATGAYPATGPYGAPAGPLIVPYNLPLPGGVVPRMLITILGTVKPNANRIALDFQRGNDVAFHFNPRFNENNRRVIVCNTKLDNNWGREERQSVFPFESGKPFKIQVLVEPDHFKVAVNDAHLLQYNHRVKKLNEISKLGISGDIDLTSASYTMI

With `CO[C@@H]1[C@@H](n2cc(-c3cc(F)c(F)c(F)c3)nn2)[C@@H](O)[C@@H](CO)O[C@H]1C(=O)N(c1cc(C)cc(C#N)c1)[C@@H]1COC[C@H]1O` [Example 39, (2R,3R,4S,5R,6R)-N-(3-cyano-5-methylphenyl)-5-hydroxy-6-(hydroxymethyl)-N-((3R,4S)-4-hydroxytetrahydrofuran-3-yl)-3-methoxy-4-(4-(3,4,5-trifluorophenyl)-1H-1,2,3-triazol-1-yl)tetrahydro-2H-pyran-2-carboxamide], the IC50 came to 69 nM. Under `CO[C@@H]1[C@@H](n2cc(-c3cc(F)c(F)c(F)c3)nn2)[C@@H](O)[C@@H](CO)O[C@H]1C(=O)N(c1cc(F)cc(C#N)c1)[C@@H]1COC[C@H]1O` [Example 40, (2R,3R,4S,5R,6R)-N-(3-cyano-5-fluorophenyl)-5-hydroxy-6-(hydroxymethyl)-N-((3R,4S)-4-hydroxytetrahydrofuran-3-yl)-3-methoxy-4-(4-(3,4,5-trifluorophenyl)-1H-1,2,3-triazol-1-yl)tetrahydro-2H-pyran-2-carboxamide] stands 145 nM; under `CO[C@@H]1[C@@H](n2cc(-c3ccc(Br)c(F)c3F)nn2)[C@@H](O)[C@@H](CO)O[C@H]1C(=O)N(c1cc(Cl)cc(Cl)c1)[C@@H]1COC[C@H]1O` [Example 41, (2R,3R,4S,5R,6R)-4-(4-(4-bromo-2,3-difluorophenyl)-1H-1,2,3-triazol-1-yl)-N-(3,5-dichlorophenyl)-5-hydroxy-6-(hydroxymethyl)-N-((3R,4S)-4-hydroxytetrahydrofuran-3-yl)-3-methoxytetrahydro-2H-pyran-2-carboxamide], 63 nM. The figure for `CO[C@@H]1[C@@H](n2cc(-c3ccc(Br)c(F)c3F)nn2)[C@@H](O)[C@@H](CO)O[C@H]1C(=O)N(c1cc(Br)cc(C#N)c1)[C@@H]1COC[C@H]1O` [Example 42, (2R,3R,4S,5R,6R)-4-(4-(4-bromo-2,3-difluorophenyl)-1H-1,2,3-triazol-1-yl)-N-(3-bromo-5-cyanophenyl)-5-hydroxy-6-(hydroxymethyl)-N-((3R,4S)-4-hydroxytetrahydrofuran-3-yl)-3-methoxytetrahydro-2H-pyran-2-carboxamide] is 37 nM; for `CO[C@@H]1[C@@H](n2cc(-c3ccc(Br)c(F)c3F)nn2)[C@@H](O)[C@@H](CO)O[C@H]1C(=O)N(c1cc(C)cc(Br)c1)[C@@H]1COC[C@H]1O` [Example 43, (2R,3R,4S,5R,6R)-4-(4-(4-bromo-2,3-difluorophenyl)-1H-1,2,3-triazol-1-yl)-N-(3-bromo-5-methylphenyl)-5-hydroxy-6-(hydroxymethyl)-N-((3R,4S)-4-hydroxytetrahydrofuran-3-yl)-3-methoxytetrahydro-2H-pyran-2-carboxamide] it is 33 nM. Turning to `CO[C@@H]1[C@@H](n2cc(-c3cc(F)c(C)c(F)c3)nn2)[C@@H](O)[C@@H](CO)O[C@H]1C(=O)N(c1cc(Cl)cc(Cl)c1)[C@@H]1COC[C@H]1O` [Example 44, (2R,3R,4S,5R,6R)-N-(3,5-dichlorophenyl)-4-(4-(3,5-difluoro-4-methylphenyl)-1H-1,2,3-triazol-1-yl)-5-hydroxy-6-(hydroxymethyl)-N-((3R,4S)-4-hydroxytetrahydrofuran-3-yl)-3-methoxytetrahydro-2H-pyran-2-carboxamide], the IC50 is 81 nM.

Regarding `CO[C@@H]1[C@@H](n2cc(-c3cc(F)c(C)c(F)c3)nn2)[C@@H](O)[C@@H](CO)O[C@H]1C(=O)N(c1cc(Br)cc(Br)c1)[C@@H]1COC[C@H]1O` [Example 45, (2R,3R,4S,5R,6R)-N-(3,5-dibromophenyl)-4-(4-(3,5-difluoro-4-methylphenyl)-1H-1,2,3-triazol-1-yl)-5-hydroxy-6-(hydroxymethyl)-N-((3R,4S)-4-hydroxytetrahydrofuran-3-yl)-3-methoxytetrahydro-2H-pyran-2-carboxamide], the half-inhibitory concentration (IC50) came out at 59 nM. Turning to `CO[C@@H]1[C@@H](n2cc(-c3cc(F)c(C)c(F)c3)nn2)[C@@H](O)[C@@H](CO)O[C@H]1C(=O)N(c1cc(Br)cc(C#N)c1)[C@@H]1COC[C@H]1O` [Example 46, (2R,3R,4S,5R,6R)-N-(3-bromo-5-cyanophenyl)-4-(4-(3,5-difluoro-4-methylphenyl)-1H-1,2,3-triazol-1-yl)-5-hydroxy-6-(hydroxymethyl)-N-((3R,4S)-4-hydroxytetrahydrofuran-3-yl)-3-methoxytetrahydro-2H-pyran-2-carboxamide], the IC50 was 81 nM. Turning to `CO[C@@H]1[C@@H](n2cc(-c3cc(F)c(C)c(F)c3)nn2)[C@@H](O)[C@@H](CO)O[C@H]1C(=O)N(c1cc(C)cc(Br)c1)[C@@H]1COC[C@H]1O` [Example 47, (2R,3R,4S,5R,6R)-N-(3-bromo-5-methylphenyl)-4-(4-(3,5-difluoro-4-methylphenyl)-1H-1,2,3-triazol-1-yl)-5-hydroxy-6-(hydroxymethyl)-N-((3R,4S)-4-hydroxytetrahydrofuran-3-yl)-3-methoxytetrahydro-2H-pyran-2-carboxamide], the IC50 is 72 nM. For the molecule `CO[C@@H]1[C@@H](n2cc(-c3ccc(C)c(F)c3F)nn2)[C@@H](O)[C@@H](CO)O[C@H]1C(=O)N(c1cc(Cl)cc(Cl)c1)[C@@H]1COC[C@H]1O` [Example 48, (2R,3R,4S,5R,6R)-N-(3,5-dichlorophenyl)-4-(4-(2,3-difluoro-4-methylphenyl)-1H-1,2,3-triazol-1-yl)-5-hydroxy-6-(hydroxymethyl)-N-((3R,4S)-4-hydroxytetrahydrofuran-3-yl)-3-methoxytetrahydro-2H-pyran-2-carboxamide], the IC50 is 29 nM. The figure for `CO[C@@H]1[C@@H](n2cc(-c3ccc(C)c(F)c3F)nn2)[C@@H](O)[C@@H](CO)O[C@H]1C(=O)N(c1cc(Br)cc(C#N)c1)[C@@H]1COC[C@H]1O` [Example 49, (2R,3R,4S,5R,6R)-N-(3-bromo-5-cyanophenyl)-4-(4-(2,3-difluoro-4-methylphenyl)-1H-1,2,3-triazol-1-yl)-5-hydroxy-6-(hydroxymethyl)-N-((3R,4S)-4-hydroxytetrahydrofuran-3-yl)-3-methoxytetrahydro-2H-pyran-2-carboxamide] is 18 nM; for `CO[C@@H]1[C@@H](n2cc(-c3ccc(C)c(F)c3F)nn2)[C@@H](O)[C@@H](CO)O[C@H]1C(=O)N(c1cc(C)cc(Br)c1)[C@@H]1COC[C@H]1O` [Example 50, (2R,3R,4S,5R,6R)-N-(3-bromo-5-methylphenyl)-4-(4-(2,3-difluoro-4-methylphenyl)-1H-1,2,3-triazol-1-yl)-5-hydroxy-6-(hydroxymethyl)-N-((3R,4S)-4-hydroxytetrahydrofuran-3-yl)-3-methoxytetrahydro-2H-pyran-2-carboxamide] it is 34 nM; for `CO[C@@H]1[C@@H](n2cc(-c3cc(F)c(Cl)c(F)c3)nn2)[C@@H](O)[C@@H](CO)O[C@H]1C(=O)N(c1cc(Cl)cc(Cl)c1)[C@@H]1COC[C@H]1O` [Example 51, (2R,3R,4S,5R,6R)-4-(4-(4-chloro-3,5-difluorophenyl)-1H-1,2,3-triazol-1-yl)-N-(3,5-dichlorophenyl)-5-hydroxy-6-(hydroxymethyl)-N-((3R,4S)-4-hydroxytetrahydrofuran-3-yl)-3-methoxytetrahydro-2H-pyran-2-carboxamide] it is 73 nM. The figure for `CO[C@@H]1[C@@H](n2cc(-c3cc(F)c(Cl)c(F)c3)nn2)[C@@H](O)[C@@H](CO)O[C@H]1C(=O)N(c1cc(Br)cc(Br)c1)[C@@H]1COC[C@H]1O` [Example 52, (2R,3R,4S,5R,6R)-4-(4-(4-chloro-3,5-difluorophenyl)-1H-1,2,3-triazol-1-yl)-N-(3,5-dibromophenyl)-5-hydroxy-6-(hydroxymethyl)-N-((3R,4S)-4-hydroxytetrahydrofuran-3-yl)-3-methoxytetrahydro-2H-pyran-2-carboxamide] is 86 nM; for `CO[C@@H]1[C@@H](n2cc(-c3cc(F)c(Cl)c(F)c3)nn2)[C@@H](O)[C@@H](CO)O[C@H]1C(=O)N(c1cc(C)cc(Br)c1)[C@@H]1COC[C@H]1O` [Example 54, (2R,3R,4S,5R,6R)-N-(3-bromo-5-methylphenyl)-4-(4-(4-chloro-3,5-difluorophenyl)-1H-1,2,3-triazol-1-yl)-5-hydroxy-6-(hydroxymethyl)-N-((3R,4S)-4-hydroxytetrahydrofuran-3-yl)-3-methoxytetrahydro-2H-pyran-2-carboxamide] it is 89 nM. Regarding `CO[C@@H]1[C@@H](n2cc(-c3ccc(Cl)c(Cl)c3)nn2)[C@@H](O)[C@@H](CO)O[C@H]1C(=O)N(c1cc(Cl)cc(Cl)c1)[C@@H]1COC[C@H]1O` [Example 55, (2R,3R,4S,5R,6R)-N-(3,5-dichlorophenyl)-4-(4-(3,4-dichlorophenyl)-1H-1,2,3-triazol-1-yl)-5-hydroxy-6-(hydroxymethyl)-N-((3R,4S)-4-hydroxytetrahydrofuran-3-yl)-3-methoxytetrahydro-2H-pyran-2-carboxamide], the IC50 was found to be 164 nM. Turning to `CO[C@@H]1[C@@H](n2cc(-c3ccc(Cl)c(Cl)c3)nn2)[C@@H](O)[C@@H](CO)O[C@H]1C(=O)N(c1cc(Br)cc(Br)c1)[C@@H]1COC[C@H]1O` [Example 56, (2R,3R,4S,5R,6R)-N-(3,5-dibromophenyl)-4-(4-(3,4-dichlorophenyl)-1H-1,2,3-triazol-1-yl)-5-hydroxy-6-(hydroxymethyl)-N-((3R,4S)-4-hydroxytetrahydrofuran-3-yl)-3-methoxytetrahydro-2H-pyran-2-carboxamide], the IC50 is 222 nM.

As usually defined, the IC50 is the concentration that inhibits the measured activity by half.
